Experimental data taken from patent US6462173B1, “Inhibitors of phosphoserine and phosphothreonine-proline-specific isomerases” (Max-Planck-Gesellschaft zur Forderung der, priority 1997, dated 2002).

What was measured:
Xenopus embryos = assay: Microinjection of Xenopus embryos, cell cycle block; format: in vivo
Description: Unfertilized eggs were incubated with sperm, dejellied, and 4 μM of the indicated protein (about 10 fold above the estimated endogenous levels) was injected in one cell of two cell stage embryos (30 embryos each protein). The injected embryos were allowed to develop at 18° C. to stage 8 and pictures were taken of typical embryos. The titration of Pin1 and the mutants was essentially as described above except that the indicated protein was injected into one cell of 4 cell stage (18 embryos each Pin1 concentration) to the indicated final concentration and allowed to develop for 3h. […] To be consistent, cell cycle blocked embryo's were scored as those that contained at least one cell on the injected side that was greater than 5 times larger than uninjected cells (FIG. 2).
To examine whether increasing the concentration of Pin1 has similar biological effects in Xenopus, Pin1 or Pin1 mutants were injected into one cell of 2 cell stage embryos and allowed the embryos to develop for 3 h (about 5 divisions). […] In contrast, the same extracts containing 40 μM of either BSA or the mutant Pin1 proteins entered mitosis by 70 to 80 min as detected by nuclear envelope breakdown, spindle formation and high histone H1 kinase activity. […]

MPM-2 antigens = assay: GST-Pin1 pull-down / depletion of MPM-2 antigens from HeLa cell extracts, MPM-2 immunoblotting; format: binding, human
Description: To detect Pin1-binding proteins, either HeLa cells were lysed in or Xenopus extracts were diluted in a buffer (buffer A) containing 50 mM Tris-HCl, pH 8.0, 200 mM NaCl, 100 mM NaF, 1 mM sodium orthovanadate, 10% glycerol, 1% Triton X100, 10 μg/ml aprotinin, 50 μg/ml phenylmethylsulfonyl fluoride and 1 mM DTT. The lysates were preclarified with boiled S. aureus bacteria (CalBiochem) and then incubated with 10 μl of agarose beads containing various GST-Pin1 proteins or control GST for 2 h at 4° C. The precipitated proteins were washed 5 times in the same buffer and subjected to immunoblotting analysis. Immunoprecipitation and immunoblotting analysis using MPM-2 antibody (Davis et al. 1983), which was kindly provided by J. Kuang, Pin1 antibodies (Lu et al., 1996, kindly provided by M. White or newly generated), anti-phospho.Tyr antibody (UBI), anti-Cdc25C (Ogg, et al., 1994) (from H. Piwnica-Worms and Santa Cruz Biotechnology), anti-Cdc27, anti-Plk1 (Zymed), anti-Cdc2 (Solomon, M. J., M. Glotzer, T. H. Lee, M. Philippe and M. W. Kirschner. Cell 63:1013-1024 (1991), anti-human Myt1, anti-human cyclin B1 and anti-Xenopus cyclin B were performed, as described previously in Lu and Hunter, 1995; Lu et al., 1996).
To determine whether GST-Pin1 can deplete MPM-2 antigens and to estimate what concentrations of Pin1 are required to completely deplete MPM-2 antigens, mitotic extracts were incubated with different amounts of GST-Pin1, followed by analyzing MPM-2 antigens remaining in the depleted supernatants. The total cellular Pin1 concentration in HeLa cells was estimated to be about 0.5 μM, based on immunoblotting analysis using anti-Pin1 antibodies with recombinant Pin1 protein as a standard.
To determine if the Pin1 mutants interact with mitotic phosphoproteins, GST-Pin1, -Pin1^R68,69A and -Pin1^H59A fusion proteins were incubated with interphase or mitotic HeLa cell extracts and associated proteins subjected to MPM-2 immunoblotting analysis. […] A few proteins including the most strongly reacting p55 band could still be recognized. […] Thus, mutating the residues that are implicated in binding either the substrate's putative phosphate group or the substrate's Pro residue abolish the ability of Pin1 to bind MPM-2 antigens.

Substance: Pin1: essential mitotic peptidyl-prolyl cis-trans isomerase, recombinant protein
- cleavage of injected cells (Xenopus embryos; 4 μM final, one cell of 2 cell stage embryos, 3 h): failed to cleave or cleaved slowly
- inhibition of the cell cycle (Xenopus embryos; 10 μM, approximately 20 fold above estimated endogenous levels): completely inhibited the cell cycle
- depletion of MPM-2 antigens (MPM-2 antigens; 8 μM GST-Pin1, mitotic extracts): depleted the majority of MPM-2 antigens
- binding of MPM-2 antigens (MPM-2 antigens; mitotic HeLa cell extracts, GST fusion proteins): specifically interacted with MPM-2 antigens
